≈ marks a conversion by molar mass, not a printed value.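 Tested at 5 concentrations; 48 h exposure; 96-well plates; endpoints linearly interpolated, else capped at highest concentration. GI50 is the concentration that inhibits growth by half. TGI marks complete inhibition of growth.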

A word on the TGI: it is the concentration giving total growth inhibition. Low readings indicate more potent growth arrest, high ones less potent growth arrest. By GI50 is commonly meant the concentration giving 50% growth inhibition.

Some test systems named below: HL-60(TB) leukemia; A549 NSCLC; IGROV1 ovarian; MDA-MB-231 breast; SK-MEL-2 melanoma; SK-MEL-28 melanoma; NCI/ADR-RES ovarian; DU-145 prostate; OVCAR-5 ovarian; UACC-62 melanoma; HCC-2998 colon.
What all share (assay): DTP human tumour cell line panel, 48 h

On to `CS(=O)(=O)c1nc(-c2cc3c(c(S(C)(=O)=O)n2)CCCC3)cc2c1CCCCC2`, for which the concentration for total growth inhibition (TGI) was above 100 µM in the test with HL-60(TB) leukemia; above 100 µM in the test with A549 NSCLC; 54.3 µM in the test with IGROV1 ovarian; above 100 µM in the test on MDA-MB-231 breast; above 100 µM in the test on SK-MEL-2 melanoma; above 100 µM in the test on SK-MEL-28 melanoma. For the same compound, the TGI with NCI/ADR-RES ovarian, in the test with DU-145 prostate, in the test on OVCAR-5 ovarian and with UACC-62 melanoma was above 100 µM in each case.

On to `CCCCCCCCCCCCCCCCNC(=O)C(=O)/C=C(\O)c1ccc(C)cc1`, for which the TGI with HL-60(TB) leukemia, with HCC-2998 colon, in the test with IGROV1 ovarian, with MDA-MB-231 breast, in the test with SK-MEL-2 melanoma and in the test with SK-MEL-28 melanoma was above 10 µM throughout. Besides, the TGI in the test on NCI/ADR-RES ovarian, in the test on DU-145 prostate and in the test on OVCAR-5 ovarian was above 10 µM throughout.

As to `O=C1c2cc(Cl)ccc2NC(=NC2CCCC2)C2CSCN12` (stereo unspecified), the total growth inhibition concentration (TGI) in the test with HCC-2998 colon, in the test on A549 NSCLC, in the test with IGROV1 ovarian, with MDA-MB-231 breast, in the test with SK-MEL-2 melanoma and in the test with SK-MEL-28 melanoma was above 100 µM throughout. The TGI with NCI/ADR-RES ovarian, in the test with DU-145 prostate, with OVCAR-5 ovarian and with UACC-62 melanoma was above 100 µM throughout.

As for `CO/N=C(/C)c1cccc(Nc2nc3ccccc3c3[nH]c4ccccc4c23)c1`, the TGI with HL-60(TB) leukemia is 53.3 µM; in the test on A549 NSCLC, 24.7 µM; in the test on IGROV1 ovarian, 30.6 µM; in the test with MDA-MB-231 breast, 25.5 µM; in the test with SK-MEL-2 melanoma, 23.5 µM; with NCI/ADR-RES ovarian it was 25.1 µM. Moreover, the TGI with DU-145 prostate was 25 µM; with OVCAR-5 ovarian it was 22.3 µM; with UACC-62 melanoma, 19.3 µM.

Consider `CC(=O)c1c(C)nc(SSc2nc(C)c(C(C)=O)c(-c3ccc(Cl)cc3)c2C#N)c(C#N)c1-c1ccc(Cl)cc1`, for which the GI50 in the test on HL-60(TB) leukemia is above 150 µg/mL; in the test on A549 NSCLC it was 73 µg/mL (≈ 121 µM); in the test on IGROV1 ovarian, 88.1 µg/mL (≈ 146 µM); with MDA-MB-231 breast, 34.4 µg/mL (≈ 56.9 µM); in the test with SK-MEL-28 melanoma, 103 µg/mL (≈ 171 µM); in the test on NCI/ADR-RES ovarian it was 118 µg/mL (≈ 196 µM). The GI50 in the test on DU-145 prostate is 140 µg/mL (≈ 232 µM); with OVCAR-5 ovarian, above 150 µg/mL; in the test on UACC-62 melanoma it was 29 µg/mL (≈ 48 µM). The TGI in the test on HL-60(TB) leukemia is above 150 µg/mL; in the test on A549 NSCLC, above 150 µg/mL; with IGROV1 ovarian, above 150 µg/mL; with MDA-MB-231 breast it was 103 µg/mL; with SK-MEL-28 melanoma, above 150 µg/mL; in the test on NCI/ADR-RES ovarian, above 150 µg/mL. Moreover, the total growth inhibition concentration (TGI) in the test with DU-145 prostate, in the test with OVCAR-5 ovarian and in the test on UACC-62 melanoma was above 150 µg/mL throughout.

As to `CCOC(=O)c1nnsc1N/N=C\c1ccc([N+](=O)[O-])cc1`, the total growth inhibition concentration (TGI) with HCC-2998 colon, in the test with A549 NSCLC, with IGROV1 ovarian, in the test on MDA-MB-231 breast, in the test on SK-MEL-2 melanoma and with SK-MEL-28 melanoma was above 100 µM in each case. Moreover, the TGI in the test on NCI/ADR-RES ovarian, in the test with DU-145 prostate, with OVCAR-5 ovarian and with UACC-62 melanoma was above 100 µM in each case.

Take `COc1c(/C=C/C(C)(C)O)cc(C2CC(=O)c3c(O)cc(O)cc3O2)cc1CC=C(C)C` (stereo unspecified): the TGI with HL-60(TB) leukemia was 30.8 µM; in the test with HCC-2998 colon, 8.66 µM; in the test with A549 NSCLC, 19.8 µM; with MDA-MB-231 breast, 15.1 µM; with SK-MEL-2 melanoma, 15.6 µM; with SK-MEL-28 melanoma, 42.5 µM. Also, the TGI in the test with NCI/ADR-RES ovarian came out at 32 µM; with DU-145 prostate it was 17.4 µM; in the test on OVCAR-5 ovarian it was 16.5 µM; in the test with UACC-62 melanoma, 13.3 µM.

As for `CC(=N\N)/C(C)=N/N=C(C)/C(C)=N/N`, the total growth inhibition concentration (TGI) in the test on HL-60(TB) leukemia, with HCC-2998 colon, with A549 NSCLC, with IGROV1 ovarian, in the test with MDA-MB-231 breast and in the test with SK-MEL-2 melanoma was above 100 µM each time. Besides, the TGI in the test on SK-MEL-28 melanoma, in the test on NCI/ADR-RES ovarian, in the test with DU-145 prostate and in the test with OVCAR-5 ovarian was above 100 µM in each case.

Turning to `CC1(C)OC2[C@@H](CO[C@@]3([C@@H](O)CCO)OC(C)(C)O[C@@H]23)O1` (stereo partly specified), the total growth inhibition concentration (TGI) in the test on HL-60(TB) leukemia, in the test with HCC-2998 colon, with IGROV1 ovarian, with MDA-MB-231 breast, with SK-MEL-2 melanoma and in the test on SK-MEL-28 melanoma was above 100 µM in each case. For the same compound, the TGI in the test with NCI/ADR-RES ovarian, in the test with DU-145 prostate, with OVCAR-5 ovarian and with UACC-62 melanoma was above 100 µM throughout.

For `Cc1cc2/c(=C\c3ccc(N(C)C)cc3)c3ccccc3n2[n+]1C`, the TGI with HL-60(TB) leukemia came out at 6.44 µM; in the test with HCC-2998 colon, 1 µM; in the test on IGROV1 ovarian, 6.76 µM; with MDA-MB-231 breast, 3.66 µM; in the test on SK-MEL-2 melanoma, 2.08 µM; with SK-MEL-28 melanoma, 3.19 µM. The total growth inhibition concentration (TGI) was above 100 µM with NCI/ADR-RES ovarian, 4.16 µM in the test with DU-145 prostate, 21.3 µM with OVCAR-5 ovarian and 2.95 µM in the test on UACC-62 melanoma.

In the case of `C=C1C(=O)O[C@H]2C[C@@]3(COC(C)=O)C=COC=C(COC(=O)C(C)C)C3CC12` (stereo partly specified), the concentration for total growth inhibition (TGI) is 63.2 µM in the test on HL-60(TB) leukemia; above 100 µM in the test with HCC-2998 colon; above 100 µM in the test with A549 NSCLC; above 100 µM in the test on IGROV1 ovarian; above 100 µM in the test on MDA-MB-231 breast; above 100 µM in the test on SK-MEL-28 melanoma. Moreover, the TGI was above 100 µM in the test on NCI/ADR-RES ovarian, above 100 µM in the test with DU-145 prostate, above 100 µM in the test with OVCAR-5 ovarian and 41.2 µM in the test with UACC-62 melanoma.

Take `COC(CN(C(C)=O)C1CCC2(SCCS2)c2[nH]c3ccccc3c21)OC` (stereo unspecified): the TGI with HL-60(TB) leukemia, with HCC-2998 colon, with A549 NSCLC, with IGROV1 ovarian, in the test on MDA-MB-231 breast and in the test on SK-MEL-2 melanoma was above 100 µM each time. Further, the concentration for total growth inhibition (TGI) in the test on SK-MEL-28 melanoma, in the test on NCI/ADR-RES ovarian, with DU-145 prostate and with OVCAR-5 ovarian was above 100 µM each time.

For the origin of these results see PubChem BioAssay (NCI).
